Test results reported in publication PMC10600239, “Selective MCL-1 inhibitor ABBV-467 is efficacious in tumor models but is associated with cardiac troponin increases in patients” (Communications Medicine, 2023).
Where “and” joins values, the source holds several entries; their conditions need not be identical. Equal entries are not always repeated.

Key:
H929 cells = assay: Caspase-3/7 activation, Δψm and annexin-V positivity by flow cytometry; assay type: cell-based, human; parameters: MMP / H929 zVAD Fig 2C: unit not given here; conditions: for Caspase-3/-7 Activation / MMP / H929 zVAD Fig 2C: H929; for Caspase-3/-7 Activation: Fig 2A; for MMP: Fig 2B
Description: H929 cells cultured in RPMI 1640 medium (Sigma, St. Louis, MO) supplemented with 10% fetal bovine serum (Gibco, Grand Island, NY) were pretreated with a pan-caspase inhibitor z-VAD-fmk (MP Biomedicals, Solon, OH; 50 µM) for 1 h before the addition of ABBV-467 for a further 6 h. Cells were then washed twice with Dulbecco’s phosphate-buffered saline and resuspended in staining buffer for determination of caspase-3/7 activation, Δψm, and annexin-V positivity using the Intellicyt MultiCyt 4-Plex Kit and high-content flow cytometry (Intellicyt, Albuquerque, NM).

[1] = Conscious telemetry-instrumented dog cardiovascular safety pharmacology; assay type: in vivo; conditions: conscious beagle, IV, at 3-mg/kg dose
Description: ABBV-467 was profiled in safety pharmacology studies in anesthetized (non-Good Laboratory Practice [GLP]) and telemetry-instrumented conscious (GLP) dog cardiovascular assays (Supplementary Table S6).
Supplementary Table S6: Maj or findings in safety pharmac ology cardiovascular studies c onduc ted with ABBV- […]
Species/Strain Route of Concentrations Sex and N Results
Administration or Doses per Group […]
Anesthetized IV 1, 3, and Male No effects up to a plasma concentration dog 10 m g/ k gN=4 o f 16 .83 µg/mL on […]
aged 8-12 months • Heart rate
• Systemic vascular resistance
At 67 .23 mg/m L, an increase in heart rate and decrease in systemic vascular
Conscious IV 0, 0.3, 1, and Male No effects on blood pressure, heart dog 3 mg/kg N=5–6a rate, or ECG parameters at any dose beagle (plasma concentration of 6.53 µg/mL at (aged 8-12 months 3-m g/ k g do s e )
ECG, electrocardiogram; IC50, half maximal inhibitory concentration; IV, intravenous; QTcV, QT interval correct ed accor ding to the Van de Water formula. No animals or data were excl uded from analysis . […] Healthy dogs, as determined by veterinary physical examination and clinical pathology, were selected for study based on availability without explicit randomization. […] Power analysis has shown a group size of 6 can statistically detect an approximately 20 % alteration in measured parameters w ith α =0.0 5. […]

[2] = tested on: Murine p185+ B-ALL cells expressing human MCL-1; assay: Engineered murine B-cell ALL lines, cell viability (CellTiter-Glo); assay type: cell-based; conditions: Mus musculus, 24 hours, 10% fetal bovine serum
Description: Supplementary Table S3: Cellular potency and selectivity of ABBV-467 in
engineered murine B-c ell ALL c ell li nes
B-Cell ALL Lines (EC50, nM)
BCL-XL BCL-2 BCL-w BCL2A1 MCL-1
Murine p185+ B-ALL cells selectiv ely expressing individual human anti–BCL-2 family members (36)
were treated with ABBV-467 for 24 hours in RPMI-1640 media ( Life Technologies, CA) containing
10% fetal bovine serum, 55 μM 2 -mercaptoethanol, 2 mM glutamine, and 1%
penicil lin/ stre ptomycin an d th e i mpact on cell via bility de termi ned usi ng Ce llTiter- Glo. Each EC50 was
calculated from the resulting dose- response curves. Data are presented as the mean of three
independent experiments, except *(n=2). Where an EC50 could not be accurately determined,
activity was define d as >3,000 nM.
ALL, acute lymphoblastic leukemia; BCL- 2, B-cell lymphoma 2; EC 50, half maximal effective

Compound: Cc1c(Cl)c2c(Cl)c(C)c1-c1c(-c3ccc(F)cc3)sc3ncnc(c13)O[C@@H](C(=O)O)Cc1cc(ccc1OCc1ccnc(-c3ccc(OC[C@H]4COCCO4)cc3)n1)OC[C@@H](CN1CCN(C)CC1)O2 [ABBV-467]
- Caspase-3/-7 Activation (H929 cells; Log [ABBV-467] uM 0.045757): 53.8099 and 53.0567 and 99.0546 and 98.9774
- Caspase-3/-7 Activation (H929 cells; Log [ABBV-467] uM 0.522879): 56.0913 and 57.1822 and 99.1897 and 99.0858
- Caspase-3/-7 Activation (H929 cells; Log [ABBV-467] uM 1): 64.5099 and 63.3101 and 99.1237 and 99.059
- MMP (H929 cells; Log [ABBV-467] uM 1): 45.9293
- Caspase-3/-7 Activation (H929 cells; Log [ABBV-467] uM -0.43136): 50.714 and 51.6373 and 98.7601 and 98.6341
- MMP (H929 cells; Log [ABBV-467] uM -0.90849): 38.9227
- Caspase-3/-7 Activation (H929 cells; Log [ABBV-467] uM -1.86273): 33.5112 and 33.8695 and 61.3327 and 57.2365
- MMP (H929 cells; Log [ABBV-467] uM -1.86273): 31.9106 and 36.0956 and 42.4956 and 39.7476
- Caspase-3/-7 Activation (H929 cells; Log [ABBV-467] uM -2.33985): 30.5735 and 30.5502 and 33.1767 and 32.117
- MMP (H929 cells; Log [ABBV-467] uM -2.81697): 29.9048
- H929 zVAD Fig 2C (H929 cells; Vehicle, Log [ABBV-467] uM 0.522879): 78.4582 and 79.5333 and 93.9539 and 93.9739
- H929 zVAD Fig 2C (H929 cells; Vehicle, Log [ABBV-467] uM 1): 82.31 and 82.4987 and 93.6098 and 94.0208
- H929 zVAD Fig 2C (H929 cells; Vehicle, Log [ABBV-467] uM -0.90849): 61.8581 and 57.4223 and 88.7815 and 89.1451
- H929 zVAD Fig 2C (H929 cells; Vehicle, Log [ABBV-467] uM -1.86273): 33.1301 and 34.5804 and 48.8387 and 44.3698
- H929 zVAD Fig 2C (H929 cells; Vehicle, Log [ABBV-467] uM -2.81697): 10.2236
- H929 zVAD Fig 2C (H929 cells; z-VAD-fmk, Log [ABBV-467] uM 0.045757): 25.2697
- H929 zVAD Fig 2C (H929 cells; z-VAD-fmk, Log [ABBV-467] uM 1): 9.553 and 7.075
- H929 zVAD Fig 2C (H929 cells; z-VAD-fmk, Log [ABBV-467] uM -0.43136): 25.945
- H929 zVAD Fig 2C (H929 cells; z-VAD-fmk, Log [ABBV-467] uM -1.38561): 25.2659
- H929 zVAD Fig 2C (H929 cells; z-VAD-fmk, Log [ABBV-467] uM -1.86273): 25.2352
- H929 zVAD Fig 2C (H929 cells; z-VAD-fmk, Log [ABBV-467] uM -2.33985): 25.2036
- hallmarks of apoptosis induced (H929 cells; H929 cells, 6 h): dose-dependent loss in mitochondrial membrane potential, caspase-3/7 activation, and phosphatidyl serine externalization
- effect of pan-caspase inhibition with z-VAD-fmk on induced apoptosis (H929 cells; z-VAD-fmk 50 µM): abrogated
- plasma concentration with no effects on blood pressure, heart rate, or ECG parameters [1]: 6530 ng/mL
- EC50 [2]: 20.3 nM
